Laboratory results as given in ChEMBL document CHEMBL4706629, “New derivatives of 4'-phenyl-2,2':6',2″-terpyridine as promising anticancer agents” (Eur J Med Chem, 2021).
The source made the active and inactive calls. No cut-off for these calls is given here.

Assays:
[1] = test system: MCF7; test: Down regulation of p21 expression in human MCF7 cells at 5 uM measured after 24 hrs by Western blot analysis; type: functional, cell-based
[2] = test system: PANC-1; test: Cell cycle arrest in human PANC-1 cells assessed as accumulation at G0/G1-phase at 2.5 uM measured after 24 hrs by muse cell analyser (reference value: 48.28 to 48.7%); type: functional
[3] = test system: MCF7; test: Induction of apoptosis in human MCF7 cells assessed as late apoptotic cells at 7.5 uM measured after 48 hrs by Annexin V and dead cell kit analysis (reference value: 1.45%); type: functional
[4] = test system: MCF7; test: Induction of apoptosis in human MCF7 cells assessed as early apoptotic cells at 7.5 uM measured after 48 hrs by Annexin V and dead cell kit analysis (reference value: 0.65%); type: functional
[5] = test system: PANC-1; test: Down regulation of p21 expression in human PANC-1 cells at 5 uM measured after 24 hrs by Western blot analysis; type: functional, cell-based
[6] = Up regulation of HIF1 expression in human PANC-1 cells at 0.5 to 5 uM measured after 24 hrs by Western blot analysis relative to control; type: functional; conditions: dose 0.5-5 µM
[7] = test system: PANC-1; test: Induction of autophagy in human PANC-1 cells assessed as increase in LC3 expression at 1 uM measured after 24 hrs by muse cell analyzer based fluorescence assay relative to control; type: functional
[8] = test system: PANC-1; test: Induction of apoptosis in human PANC-1 cells assessed as late apoptotic cells at 5 uM measured after 48 hrs by Annexin V and dead cell kit analysis (reference value: 2.4%); type: functional
[9] = test system: MCF7; test: Cell cycle arrest in human MCF7 cells assessed as accumulation at S-phase at 7.5 uM measured after 24 hrs by muse cell analyser (reference value: 9.9 to 11.66%); type: functional
[10] = test system: MCF7; test: Induction of apoptosis in human MCF7 cells assessed as viable cells at 5 uM measured after 48 hrs by Annexin V and dead cell kit analysis (reference value: 97.4%); type: functional; conditions: read-out: Activity
[11] = test system: PANC-1; test: Induction of apoptosis in human PANC-1 cells assessed as late apoptotic cells at 7.5 uM measured after 48 hrs by Annexin V and dead cell kit analysis (reference value: 2.4%); type: functional
[12] = test system: U-251; test: Cytotoxicity against human U-251 cells assessed as reduction in cell viability measured after 72 hrs by MTS assay; type: functional, cell-based; conditions: U-251, 72 h
[13] = test system: PANC-1; test: Induction of apoptosis in human PANC-1 cells assessed as necrotic cells at 7.5 uM measured after 48 hrs by Annexin V and dead cell kit analysis (reference value: 1.05%); type: functional
[14] = test system: MCF7; test: Cell cycle arrest in human MCF7 cells assessed as accumulation at S-phase at 5 uM measured after 24 hrs by muse cell analyser (reference value: 9.9 to 11.66%); type: functional
[15] = test system: PANC-1; test: Induction of reactive oxygen species generation in human PANC-1 cells at 1 uM measured after 12 hrs by cellrox-green reagent based assay; type: functional, cell-based
[16] = test system: PANC-1; test: Down regulation of cyclin E1 expression in human PANC-1 cells at 0.5 to 5 uM measured after 24 hrs by Western blot analysis; type: functional, cell-based; conditions: dose 0.5-5 µM
[17] = test system: PANC-1; test: Cell cycle arrest in human PANC-1 cells assessed as accumulation at S-phase at 7.5 uM measured after 24 hrs by muse cell analyser (reference value: 14.3 to 14.9%); type: functional

## c1ccc(-c2cn(-c3ccc(-c4cc(-c5ccccn5)nc(-c5ccccn5)c4)cc3)nn2)nc1
[1]
  Activity: Active
[2]
  Activity: 53.98%
[3]
  Activity: 17.45%
[4]
  Activity: 28.2%
[5]
  Activity: Active
[6]
  fold change (FC): 30
[7]
  fold change (FC): 2.2
[8]
  Activity: 8.75%
[9]
  Activity: 10%
[10]
  viability at 5 µM: 67.1%
[11]
  Activity: 4.55%
[12]
  IC50: 855 nM
[13]
  Activity: 1.8%
[14]
  Activity: 12.1%
[15]
  Activity: Active
[16]
  Activity: inactive
[17]
  Activity: 6.9%
